What was measured:
[1] = system: E. coli NM522 (pBBR1MCS5); assay: BPL treatment of E. coli NM522 (pBBR1MCS5, no E-lysis), small scale, CFU; type: cell-based; settings: 0.05% BPL, 42° C., 30 min
Protocol: (§1) 2. Comparison of E. coli NM522 (pBBR1MCS5, no E-lysis) and E. coli BG NM522 (pGlysivb, E-lysis Plasmid) Treated vs. Nontreated with BPL at a Final Concentration of 0.05% BPL at 42° C.
(§2) Data from E. coli NM522 (pBBR1MCS5) that have been treated with 0.05% BPL at 42° C. (FIG. 4A) are showing that a reduction in viability of ˜5 log is obtained in small scale experiments whereas E. coli BG NM522 (pGlysivb) treated with 0.05% BPL at 42° C. […] Using a concentration of 0.05% BPL under a temperature of 42° C. and 30 min for the reaction is sufficient for E-lysed bacteria to be safely inactivated; no living cell counts are detected.

[2] = system: E. coli BG NM522 (pGlysivb); assay: BPL treatment of E. coli BG NM522 (pGlysivb, E-lysis plasmid), small scale, CFU; type: cell-based; settings: 0.05% BPL, 42° C., 30 min
Protocol: as §1, §2

E. coli NM522 pGlysivb = assay: Temperature study of BPL inactivation rates; type: cell-based; settings: 0.05% BPL; for reduction of CFU: within 30 min; for time to BPL inactivation: starting CFU approximately 110^3/ml
Text: The sterilizing activity of BPL and its self destruction in water is temperature dependant.

[3] = system: E. coli NM522 (backbone plasmid pBBR1MCS5); assay: BPL treatment in 20 l fermenter, control without lysis, CFU; type: cell-based; settings: 0.05% BPL, 42° C., 30 min
Text: (§3) During the production process samples of the culture broth are taken at fixed timepoints (labeled A-M in FIG. 3) to determine optical density, colony forming units (CFU), BG appearance by microscopy as well as for real time PCR analysis of DNA contents. Fermentation parameters like pH, air flow, pO2, stirring and temperature are automatically documented by the fermentation program. Throughout the consistency study all parameters were kept in a narrow window.
(§4) BPL killing rates as well as DNA concentration of bacterial samples were measured at time points and under fermentation conditions as described for BG production (Example 1, FIG. 3).

[4] = system: E. coli NM522 BG (pGlysivb); assay: BPL treatment in 20 l fermenter, E-lysed BG, CFU; type: cell-based; settings: 0.05% BPL, 42° C., 30 min
Protocol: (§5) Gram negative bacteria (e.g E. coli or Shigella flexneri 2a in this study) are transformed with plasmid pGlysivb (encoding lysis gene E, construction as described in FIG. 2) or pGLNIc (encoding both the lysis gene E and the Staphylococcus aureus nuclease gene SNUC; WO 03/006630). Plasmids, pGlysivb and pGLNIc tightly regulate expression of lysis gene E by a temperature upshift from 35° C. to 42-44° C. under the mutated thermosensitive Lambda-promotor (λPRmut) and the expression of SNUC depends on induction from an upstream lac-promotor by addition of IPTG. As a consequence of protein E expression an E-specific tunnel structure between the inner and outer membrane of the bacteria is formed resulting in the expulsion of the cytoplasmic contents, including chromosomal and plasmid DNA, into the culture media under conditions described, at least 99.9% of all bacteria are converted into BG during the E-lysis process. To guarantee nucleic acid free BG a second system is activated in case of pGLNIc making use of the DNA and RNA degrading capabilities of SNUC. […]
as §4

[5] = system: E. coli NM522 (pGlysivb, pSNUCIQ3); assay: BPL inactivation of E-SNUC BG in 20 l fermenter; type: cell-based; settings: 42° C., 30 min
Protocol: as §5, with “SNUC. The nuclease is expressed −30 min before induction of gene E expression during the exponential growth phase of the bacteria and is activated after completion of E-lysis by addition of magnesiumchloride and calciumchloride.” for “SNUC.”

[6] = system: Shigella flexneri 2a (backbone plasmid pBBR1MCS5); assay: Control fermentations inactivated with BPL, CFU; type: cell-based; settings: 0.05% BPL, 30 min, two control fermentations
Text: as §3
To determine the inactivation effect of BPL to Shigella flexneri 2a bacteria under the same fermentation conditions as for production of BG two control fermentations using Shigella flexneri 2a transformed with the backbone plasmid pBBR1MCS5 (no lysis, no nuclease) were performed. BPL killing rates as well as DNA concentration of bacterial samples was measured at time points and under fermentation conditions described for BG production (Example 1, FIG. 3).

[7] = cited from earlier work

O=C1CCO1 [BPL, betapropiolactone]
reduction in viability [1]: ~5 log | surviving bacteria after BPL treatment [2]: no surviving bacteria | reduction of CFU (E. coli NM522 pGlysivb; 16° C.): less than 0.5 log | reduction of CFU (E. coli NM522 pGlysivb; 28° C.): approximately 1.5 log | time to BPL inactivation (E. coli NM522 pGlysivb; 36° C.): 30 min | time to BPL inactivation (E. coli NM522 pGlysivb; 42° C.): 15 min | reduction in viability [3]: ~3 log | inactivation, live CFU at end of BG production process [4]: total inactivation | concentration used for total inactivation by BPL [5]: less than 0.025% | drop in living cell counts (CFU) [6]: 4 log | solubility in water [7]: highly soluble in water

Source: US7968323B2, “Bacterial ghost (BG) production process using betapropiolactone (BPL) for final inactivation” (priority 2008, dated 2011)
